These results are taken from US5175166A, “Muscarinic agonists” (The University of Toledo, priority 1991, dated 1992).

Experiment [1] concerns M1 receptors. Description: Phosphoinositide turnover in the hippocampus (brain slices). Particulars: Rattus norvegicus, read-out: Phosphoinositide turnover in the hippocampus, maximal % response above baseline; for activation at 100 µM / activation at 50 µM: hippocampus. The format is cell-based, Male Long Evans rats. The protocol:
The slices were gently agitated at 37° C. in a shaking water bath for 45 min with three changes to buffer. […] The samples were mixed with vigorous shaking and spun at 1000×g for 10 min to separate organic and aqueous phases. […] Briefly, […] anion-exchange SEP-PAK's (Waters Associates) cartridges were converted into the formate form by washing first with 10 ml of a solution of 1.0 M-ammonium formate in 0.1 M-formic acid, followed by 20 ml of distilled water. The sample loading and solution delivery were performed by using disposable plastic syringes; an approximate flow rate of 10-15 ml/min was maintained. […] The entire amount was loaded on to the […] anion-exchange SEP-PAK cartridge. […] Phosphoinositide turnover in the hippocampus indicates a biological response in an area of the brain where M1 receptors predominate. Higher numbers indicate greater efficacy and selectivity at M1 receptors.

The target of experiment [2] is muscarinic receptors. Put plainly: Binding, competition with 3H-oxotremorine M (3H-OXO-M), agonist binding (rat brain membranes). Particulars: 3 nM 3H-oxotremorine M, 15 minutes room temperature, mean of three experiments. The protocol: (§1) Other binding was determined indirectly by the ability of compounds to compete with 1 nM ^3 H-pirenzepine (^3 H--PZ), or 3 nM ^3 H-oxotremorine M (^3 H--OXO--M) in a suspension of brain membranes. Each sample contained approximately 0.1 mg/ml protein for ^3 H--OXO--M in 20 mM Tris-Cl buffer with 1 mM MnCl2 and varying concentrations of compound in a final volume of […]. Samples were incubated 1 hr. for ^3 H--PZ, and 15 minutes for ^3 H--OXO--M at room temperature and then filtered through glass fiber filters using a Brandell cell harvester adapted for receptor binding work and the filters were washed twice with two 5-ml portions of cold buffer. Nonspecific binding was evaluated by the inclusion of excess atropine in a separate set of samples. IC50 values were determined from Hill plots of the inhibition data and are reported as means of three independent experiments each performed in triplicate.
(§2) Rats were killed by cervical dislocation and their brains rapidly removed. Tissue was homogenized in 9 vol. (w/v) of a 40 mM sodium-potassium phosphate buffer solution (pH 7.4) buffer solution with a Brinkman Polytron homogenizer five times for 10 sec at 5 sec intervals. The crude homogenate was subjected to centrifugation for 10 min at 1000×g, the supernatant saved, and the pellet resuspended in 9 vol. (w/v) of homogenization buffer and spun for another 10 min at 1000×g. The supernatants were combined and spun again for 30 min at 17,500×g. The resultant pellet was resuspended by homogenization in a Teflon-glass homogenizer in 10 vol. of buffer, and washed by centrifugation at 17,500×g for 30 min. The final pellet was resuspended by hand homogenization with a Teflon and glass homogenizer in buffer. The suspension was then divided into several portions and stored at -70° C.
(§3) In the table, ^3 H-QNB indicates general binding to muscarinic receptors and the lower the number, the higher is the potency. ^3 H-PZ indicates binding to muscarinic receptors and a preference for M1 receptors involved in memory and cognition. The lower the number for ^3 H-PZ the higher the potencies; the same is true for ^3 H--OXO--M which indicates agonist binding. In general, the higher the ratio of the value for ^3 H--PZ to the value for ^3 H--OXO--M the better is the agonistic characteristic.

Experiment [3] has as its system muscarinic receptors linked to M1, M3, M5 receptors. Put plainly: PI Cortex: phosphoinositide turnover in the cortex (brain slices). Type of experiment: cell-based, Male Long Evans rats. The conditions noted are these: Rattus norvegicus, read-out: PI Cortex, maximal % response above baseline.
Description: Male Long Evans rats (200-300 g) were decapitated and their brains were rapidly removed and dissected according to the method of Glowinski and Iversen. […] The slices were gently agitated at 37° C. in a shaking water bath for 45 min with three changes to buffer.
Immediately before each experiment, [^3 H] inositol was purified by drying under Nz and passing a portion through a 1-ml column of Dowex AGl-X8 (formate form) to remove contaminants. […] Aliquots (25 microliters) of tissue slices were pipetted into flat-bottomed Beckman-biovials (5-ml capacity) containing 0.3 mM [^3 H]-inositol (15 Ci/mmol) and 10 mM LiCl in 245 microliters of buffer. The vials were then gassed, capped and incubated at 37° C. in a shaking water bath for 30 min. At the end of 30 min, agonist (or buffer for the determination of basal levels) was then added (30 microliters), and the incubation continued for an additional 45 min. The 45 -min incubation period was selected on the basis of the time course of labeled inositol phosphates ([^3 H]-IP's) accumulation under these conditions. The incubations were stopped by the addition of 0.94 ml of CHCl3 /MeOH (1:2, V/V) followed by 0.31 ml of CHCl3 and 0.31 ml of H2 O. The samples were mixed with vigorous shaking and spun at 1000×g for 10 min to separate organic and aqueous phases. Aliquots (750 microliter) of the upper aqueous phase were removed for determination of [^3 H]-IP's. In some cases 200 ml aliquots of the organic phase were removed, dried overnight and counted in 5 ml of scintillant (Amersham) for determination of [^3 H]-inositol incorporation into phospholipids.
Briefly, ACCELL QMA anion-exchange SEP-PAK's (Waters Associates) cartridges were converted into the formate form by washing first with 10 ml of a solution of 1.0 M-ammonium formate in 0.1 M-formic acid, followed by 20 ml of distilled water. The sample loading and solution delivery were performed by using disposable plastic syringes; an approximate flow rate of 10-15 ml/min was maintained. Total [^3 H]-IP's were determined by the "batch" method in which 750 microliter aliquots of the aqueous phase obtained as described above was diluted to 3 ml with distilled water. The entire amount was loaded on to the ACCELL QMA anion-exchange SEP-PAK cartridge. The cartridge was then washed with 10 ml of distilled water, followed by 5 mM-disodium tetraborate. Radiolabeled IP's were then eluted with 1 ml of 0.6 M-ammonium formate/0.06 M formic acid/5 mM-disodium tetraborate (pH 4.75) and 0.50 ml of this eluate was counted in 5 ml of aqueous counting scintillant.
The target in experiment [4] is muscarinic receptors. Put plainly: Binding to muscarinic receptors, competition with [3H]-QNB (rat brain membranes). Particulars: for IC50: 50 pM [3H]-QNB, rat brain membranes, pH 7.4, 2.0 hr room temperature, mean of three experiments; for binding to muscarinic receptors (in words): qualitative statement.
Experiment [5] concerns the target T1, M1 receptors (Rattus norvegicus, UniProt P08482).
T1 sequence (P08482 1-460): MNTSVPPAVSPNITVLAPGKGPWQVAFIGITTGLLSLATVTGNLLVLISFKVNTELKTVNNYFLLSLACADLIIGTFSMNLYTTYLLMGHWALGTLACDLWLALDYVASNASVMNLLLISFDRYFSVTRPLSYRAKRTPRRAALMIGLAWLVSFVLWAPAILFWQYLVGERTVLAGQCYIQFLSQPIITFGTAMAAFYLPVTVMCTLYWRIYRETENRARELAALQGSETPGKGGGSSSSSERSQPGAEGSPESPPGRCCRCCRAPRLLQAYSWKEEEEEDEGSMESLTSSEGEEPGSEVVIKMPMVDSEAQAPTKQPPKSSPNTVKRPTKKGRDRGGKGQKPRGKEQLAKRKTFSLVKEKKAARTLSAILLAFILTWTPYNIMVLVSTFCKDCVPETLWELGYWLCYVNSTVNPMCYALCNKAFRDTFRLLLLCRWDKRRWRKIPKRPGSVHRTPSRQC
Description: Binding, competition with 3H-pirenzepine (3H-PZ) (rat brain membranes). Particulars: 1 nM 3H-pirenzepine, 1 hr room temperature, mean of three experiments. On the procedure:
as §1, §2, §3

In experiment [6] the test system is muscarinic receptors. Put plainly: Phosphoinositide (PI) response / inositol phosphate formation in brain slices (region not stated). Type of experiment: cell-based, Male Long Evans rats. Particulars: qualitative statement. On the procedure:
The slices were gently agitated at 37° C. in a shaking water bath for 45 min with three changes to buffer.
The sample loading and solution delivery were performed by using disposable plastic syringes; an approximate flow rate of 10-15 ml/min was maintained.

Structures can show the parent of a compound that is named as a salt.

For the compound `COC(=O)C1CN=CNC1` (centres unmarked) [Example 1, 1,4,5,6-Tetrahydro-5-methoxycarbonylpyrimidine Hydrobromide], the activation at 1000 µM in experiment [1] is 237%. Also, the IC50 in experiment [2] came to 0.09 µM. In addition, the activation at 100 µM in experiment [3] stood at 131%.
For `CCOC(=O)C1CN=CNC1` (centres unmarked) [Example 2, 1,4,5,6-Tetrahydro-5-ethoxycarbonylpyrimidine Hydrochloride], the values for the IC50 in experiment [2] and in experiment [4] were 0.16 µM and 1.9 µM, respectively. Also, in experiment [3], the activation at 100 µM was determined as 150%.
Take `CCCOC(=O)C1CN=CNC1` (centres unmarked) [Example 3, n-Propyl 1,4,5,6-Tetrahydropyrimidine-5-carboxylate Hydrochloride]: the concentration for half-maximal inhibition (IC50) in experiment [5] stood at 1.33 µM; in experiment [2], 1.08 µM; in experiment [4], 2.1 µM. Besides, the activation at 100 µM in experiment [3] was found to be 7.1%.
For the compound `CC(C)OC(=O)C1CN=CNC1` (centres unmarked) [Example 4, Isopropyl 1,4,5,6-Tetrahydropyrimidine-5-carboxylate Hydrochloride], the IC50 in experiment [2] came out at 1.76 µM; in experiment [4], 3.5 µM. In addition, the activation at 100 µM in experiment [3] amounted to 7.2%.
As for `O=C(OCc1ccccc1)C1CN=CNC1` (centres unmarked) [Example 5, Benzyl 1,4,5,6-Tetrahydropyrimidine-5-carboxylate Hydrochloride], the IC50 is 1.27 µM in experiment [5], 1.09 µM in experiment [2] and ~1 µM in experiment [4]. The activation at 100 µM in experiment [3] came out at 3.5%.
Consider `C#CCOC(=O)C1CN=CNC1` (centres unmarked) [Example 6, Propynyl 1,4,5,6-Tetrahydropyrimidine-5-carboxylate Hydrochloride], for which the activation at 100 µM in experiment [3] was found to be 230%. This compound gave an IC50 in experiment [4] of 1.9 µM.
As for `Cc1noc(C2CN=CNC2)n1` (centres unmarked) [Example 9, 1,4,5,6-Tetrahydro-5-(3-methyl-1,2,4-oxadiazol-5-yl)pyrimidine trifluoroacetate], the activation at 100 µM in experiment [1] amounted to 704%; in experiment [3], 700%. Further, the IC50 was 0.026 µM in experiment [2] and 2 µM in experiment [4].
On to `CC(=O)OC1CN=CNC1.Cl` (centres unmarked) [Example 10, 5-Acetoxy-1,4,5,6-tetrahydropyrimidine HCl], for which the activation at 100 µM in experiment [1] worked out at 70%. Further, the “PI response (in words)” value in experiment [6] is “efficacious with respect to the PI response”. Moreover, the IC50 in experiment [5] amounted to 10 µM; in experiment [2], 0.64 µM; in experiment [4], 31.6 µM. In experiment [4], the “binding to muscarinic receptors (in words)” value was “acceptable binding data”.
As for `COC(=O)C1=CNCN(C)C1` [Example 11, 1-Methyl-5-methoxycarbonyl-1,2,3,6-tetrahydropyrimidine HCl], the IC50 in experiment [5] amounted to 15 µM; in experiment [2] it was 2.4 µM; in experiment [4] it was 25.1 µM. Moreover, the activation at 1000 µM in experiment [3] (dose 1 mM) was 182%.
`COC(=O)C1CCC(N)=NC1.Cl` (centres unmarked) [Example 14, 2-Amino-5-methoxycarbonyl-3,4,5,6-tetrahydropyridine HCl]: the “PI response (in words)” value in experiment [6] is on record as “unexpectedly superior PI response”. Further, the IC50 was determined as 0.77 µM in experiment [5], 0.114 µM in experiment [2] and 7.3 µM in experiment [4]. Also, the activation at 100 µM in experiment [3] worked out at 265%.
In the case of `COC(=O)C1CCCN=C1N` (centres unmarked) [Example 15, 2-amino-3-methoxycarbonyl-3,4,5,6-tetrahydropyridine HCl], the results for the half-maximal inhibitory concentration (IC50) in experiment [5], in experiment [2] and in experiment [4] were 13 µM, > 10 µM and 83 µM, respectively. Further, the activation at 100 µM in experiment [3] was -5.5%.
`COC(=O)C1CCN=C(N)C1` (centres unmarked) [Example 16, 2-Amino-4-methoxycarbonyl-3,4,5,6-tetrahydropyridine HCL]: the activation at 100 µM in experiment [3] was determined as 9%. For the same compound, the IC50 in experiment [4] came to 130 µM.
Consider `COC(=O)C1CCCC(N)=N1` (centres unmarked) [Example 17, 2-Amino-6-methoxycarbonyl-3,4,5,6-tetrahydropyridine HCL], for which the IC50 in experiment [5] is > 10 µM; in experiment [2] it was > 10 µM; in experiment [4], 130 µM. For the same compound, the activation at 100 µM in experiment [3] came out at 5.9%.
For `CC(=O)OC1CN=C(C(F)(F)F)NC1.Cl` (centres unmarked) [Example 18, 5-Acetoxy-2-trifluoromethyl-1,4,5,6-tetrahydropyrimidine HCl], in experiment [1], the activation at 50 µM was 0%. Moreover, the “PI response (in words)” value in experiment [6] is given as “no PI response”. In addition, the IC50 in experiment [5] was > 10 µM; in experiment [2], > 10 µM; in experiment [4] it was 8.7 µM.
As for `CC(=O)OC1CN=C(C)NC1` (centres unmarked) [Example 19, 2-methyl-5-acetoxy-1,4,5,6-tetrahydropyrimidine], in experiment [1], the activation at 50 µM worked out at 0%. For the same compound, the “PI response (in words)” value in experiment [6] is recorded as “virtually no PI response”. Further, the half-maximal inhibitory concentration (IC50) in experiment [5] was > 10 µM; in experiment [2], > 10 µM; in experiment [4] it was 100 µM. Also, the “binding to muscarinic receptors (in words)” value in experiment [4] was “extremely poor binding to muscarinic receptors”.

A word on the IC50: it is the midpoint of a concentration-inhibition curve. A low value points to inhibition by little substance.
